In PubChem BioAssay AID256 (DTP/NCI, 2004):
Several values for one entry are separate records, joined by “and”; a condition that tells them apart may be missing. Equal entries are not always repeated. Inconclusive results and toxic doses are left out. The calls were made as follows: active = survival T/C of 150% or more; inactive = T/C below 125% in these data.

Tested on: CD2F1 mice, L1210 leukemia ip, survival T/C
Experiment: NCI In Vivo Anticancer Drug Screen. Data for tumor model L1210 Leukemia (intraperitoneal) in CD2F1 (CDF1) mice
Conditions: higher = longer survival
Summary of the method: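 Read-out first: treated-group measurement over vehicle-control measurement, expressed as a ratio. Animals bore a transplanted tumor line and were dosed with compound or vehicle.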

[1] = endpoint: mean survival time, dose: 100.0 mg/kg/injection, schedule: Q04DX002 (ip), vehicle: saline with Tween-80
[2] = endpoint: mean survival time, dose: 75.0 mg/kg/injection, schedule: Q01DX001 (ip), vehicle: saline
[3] = endpoint: mean survival time, dose: 150.0 mg/kg/injection, schedule: Q01DX001 (ip), vehicle: saline
[4] = endpoint: mean survival time, dose: 25.0 mg/kg/injection, schedule: Q04DX003 (ip), vehicle: saline with Tween-80
[5] = endpoint: mean survival time, dose: 50.0 mg/kg/injection, schedule: Q04DX003 (ip), vehicle: saline with Tween-80
[6] = endpoint: mean survival time, dose: 100.0 mg/kg/injection, schedule: Q04DX003 (ip), vehicle: saline with Tween-80
[7] = endpoint: mean survival time, dose: 200.0 mg/kg/injection, schedule: Q04DX003 (ip), vehicle: saline with Tween-80
[8] = endpoint: mean survival time, dose: 400.0 mg/kg/injection, schedule: Q04DX003 (ip), vehicle: saline with Tween-80
[9] = endpoint: mean survival time, dose: 100.0 mg/kg/injection, schedule: Q01DX009 (ip), vehicle: saline with Tween-80
[10] = endpoint: mean survival time, dose: 12.5 mg/kg/injection, schedule: Q01DX009 (ip), vehicle: saline with Tween-80

Measured: T/C

S=P(c1ccccc1)(N1CC1)N1CC1
inactive: endpoint: mean survival time, dose: 6.25 mg/kg/injection, schedule: Q01DX009 (ip), vehicle: Klucel (hydroxypropylcellulose) (HPC) 102 % of control | endpoint: mean survival time, dose: 6.25 mg/kg/injection, schedule: Q01DX009 (ip), vehicle: other 95 % of control | endpoint: mean survival time, dose: 12.5 mg/kg/injection, schedule: Q01DX009 (ip), vehicle: Klucel (hydroxypropylcellulose) (HPC) 102 % of control | endpoint: mean survival time, dose: 12.5 mg/kg/injection, schedule: Q01DX009 (ip), vehicle: other 118 % of control and 104 % of control | endpoint: mean survival time, dose: 22.0 mg/kg/injection, schedule: Q01DX009 (ip), vehicle: other 115 % of control | endpoint: mean survival time, dose: 25.0 mg/kg/injection, schedule: Q01DX009 (ip), vehicle: Klucel (hydroxypropylcellulose) (HPC) 104 % of control | endpoint: mean survival time, dose: 25.0 mg/kg/injection, schedule: Q01DX009 (ip), vehicle: other 106 % of control | endpoint: mean survival time, dose: 25.0 mg/kg/injection, schedule: Q04DX002 (ip), vehicle: saline with Tween-80 96 % of control | endpoint: mean survival time, dose: 44.0 mg/kg/injection, schedule: Q04DX002 (ip), vehicle: other 97 % of control | endpoint: mean survival time, dose: 44.0 mg/kg/injection, schedule: Q04DX003 (ip), vehicle: other 106 % of control | endpoint: mean survival time, dose: 50.0 mg/kg/injection, schedule: Q01DX009 (ip), vehicle: Klucel (hydroxypropylcellulose) (HPC) 118 % of control | endpoint: mean survival time, dose: 50.0 mg/kg/injection, schedule: Q01DX009 (ip), vehicle: other 123 % of control | endpoint: mean survival time, dose: 50.0 mg/kg/injection, schedule: Q04DX002 (ip), vehicle: saline with Tween-80 103 % of control and 106 % of control | endpoint: mean survival time, dose: 66.0 mg/kg/injection, schedule: Q04DX002 (ip), vehicle: other 109 % of control | endpoint: mean survival time, dose: 66.0 mg/kg/injection, schedule: Q04DX003 (ip), vehicle: other 118 % of control | endpoint: mean survival time, dose: 75.0 mg/kg/injection, schedule: Q01DX009 (ip), vehicle: other 101 % of control | endpoint: mean survival time, dose: 100.0 mg/kg/injection, schedule: Q04DX002 (ip), vehicle: other 115 % of control | [1] 117 % of control | endpoint: mean survival time, dose: 100.0 mg/kg/injection, schedule: Q04DX003 (ip), vehicle: other 108 % of control | endpoint: mean survival time, dose: 118.0 mg/kg/injection, schedule: Q01DX001 (ip), vehicle: other 100 % of control | endpoint: mean survival time, dose: 150.0 mg/kg/injection, schedule: Q04DX002 (ip), vehicle: other 103 % of control | endpoint: mean survival time, dose: 178.0 mg/kg/injection, schedule: Q01DX001 (ip), vehicle: other 97 % of control | endpoint: mean survival time, dose: 266.0 mg/kg/injection, schedule: Q01DX001 (ip), vehicle: other 109 % of control | endpoint: mean survival time, dose: 400.0 mg/kg/injection, schedule: Q01DX001 (ip), vehicle: other 100 % of control

COC/C=N/N(C)C
inactive: [2] 100 % of control | [3] 96 % of control

COC(=O)c1cc2c3ccccc3ncc2c2ccccc12
inactive: [4] 89 % of control | [5] 89 % of control | [6] 87 % of control | [7] 89 % of control | [8] 89 % of control

O=C(NCCCl)C(=O)NCCCl
inactive: [1] 100 % of control | endpoint: mean survival time, dose: 200.0 mg/kg/injection, schedule: Q04DX002 (ip), vehicle: saline with Tween-80 100 % of control | endpoint: mean survival time, dose: 400.0 mg/kg/injection, schedule: Q04DX002 (ip), vehicle: saline with Tween-80 100 % of control

O=C1CCCCCCCCCCC1C(O)(C(F)(F)F)C(F)(F)F (stereo not given)
inactive: [9] 96 % of control | [6] 91 % of control | endpoint: mean survival time, dose: 200.0 mg/kg/injection, schedule: Q01DX009 (ip), vehicle: saline with Tween-80 101 % of control | [7] 95 % of control | endpoint: mean survival time, dose: 400.0 mg/kg/injection, schedule: Q01DX009 (ip), vehicle: saline with Tween-80 96 % of control | [8] 91 % of control

CCCC1CC[N-]CC1.CCCC1CC[N-]CC1.[Cl][Pt+2]([Cl])([Cl])[Cl]
inactive: endpoint: mean survival time, dose: 12.5 mg/kg/injection, schedule: Q01DX009 (ip), vehicle: saline sonified 114 % of control | [4] 98 % of control

CCCCCCOc1ccc(N=Cc2ccc(N(C)C)cc2)cc1
inactive: endpoint: mean survival time, dose: 75.0 mg/kg/injection, schedule: Q01DX001 (ip), vehicle: other 93 % of control | endpoint: mean survival time, dose: 150.0 mg/kg/injection, schedule: Q01DX001 (ip), vehicle: other 94 % of control

O=C1C=CC(=Nc2ccc(O)cc2)O1
inactive: endpoint: mean survival time, dose: 5.0 mg/kg/injection, schedule: Q01DX009 (ip), vehicle: saline with Tween-80 100 % of control | endpoint: mean survival time, dose: 10.0 mg/kg/injection, schedule: Q01DX009 (ip), vehicle: saline with Tween-80 94 % of control | endpoint: mean survival time, dose: 20.0 mg/kg/injection, schedule: Q01DX009 (ip), vehicle: saline with Tween-80 104 % of control

CCN(CC)C(C)COC(=O)c1ccc(N)cc1 (stereo not given)
inactive: endpoint: mean survival time, dose: 12.5 mg/kg/injection, schedule: Q04DX003 (ip), vehicle: saline 103 % of control | endpoint: mean survival time, dose: 25.0 mg/kg/injection, schedule: Q04DX003 (ip), vehicle: saline 103 % of control | endpoint: mean survival time, dose: 50.0 mg/kg/injection, schedule: Q04DX003 (ip), vehicle: saline 111 % of control

CSc1nccc2c1ncn2C1OC(CO)C(O)C1O (stereo not given)
inactive: endpoint: mean survival time, dose: 100.0 mg/kg/injection, schedule: Q01DX001 (ip), vehicle: saline 98 % of control | endpoint: mean survival time, dose: 200.0 mg/kg/injection, schedule: Q01DX001 (ip), vehicle: saline 104 % of control | endpoint: mean survival time, dose: 400.0 mg/kg/injection, schedule: Q01DX001 (ip), vehicle: saline 104 % of control

CCCSCCCC(=O)O
inactive: endpoint: mean survival time, dose: 100.0 mg/kg/injection, schedule: Q04DX003 (ip), vehicle: Klucel (hydroxypropylcellulose) (HPC) 95 % of control | endpoint: mean survival time, dose: 200.0 mg/kg/injection, schedule: Q04DX003 (ip), vehicle: Klucel (hydroxypropylcellulose) (HPC) 98 % of control | endpoint: mean survival time, dose: 400.0 mg/kg/injection, schedule: Q04DX003 (ip), vehicle: Klucel (hydroxypropylcellulose) (HPC) 103 % of control

CCOC(=N)c1cn(C2OC(CO)C(O)C2O)c2nc[nH]c(=O)c12 (stereo not given)
inactive: [2] 119 % of control

C=C(C)[C@@H]1CCc2c(O)c(O)c(=O)cc(C)c2C1
inactive: endpoint: mean survival time, dose: 3.12 mg/kg/injection, schedule: Q01DX009 (ip), vehicle: saline with Tween-80 89 % of control | endpoint: mean survival time, dose: 6.25 mg/kg/injection, schedule: Q01DX009 (ip), vehicle: saline with Tween-80 96 % of control | [10] 93 % of control | endpoint: mean survival time, dose: 25.0 mg/kg/injection, schedule: Q01DX009 (ip), vehicle: saline with Tween-80 95 % of control | endpoint: mean survival time, dose: 50.0 mg/kg/injection, schedule: Q01DX009 (ip), vehicle: saline with Tween-80 106 % of control | [9] 108 % of control

COc1cccc(NC2=NCCO2)c1
inactive: [6] 96 % of control | [7] 98 % of control

Cn1cnc([N+](=O)[O-])c1Sc1ncnc2c1ncn2C1CC(O)C(CO)O1 (stereo not given)
inactive: endpoint: median survival time, dose: 3.75 mg/kg/injection, schedule: Q01DX005 (ip), vehicle: saline with Tween-80 104 % of control | endpoint: median survival time, dose: 7.5 mg/kg/injection, schedule: Q01DX005 (ip), vehicle: saline with Tween-80 106 % of control | endpoint: median survival time, dose: 15.0 mg/kg/injection, schedule: Q01DX005 (ip), vehicle: saline with Tween-80 103 % of control | endpoint: median survival time, dose: 30.0 mg/kg/injection, schedule: Q01DX005 (ip), vehicle: saline with Tween-80 106 % of control | endpoint: median survival time, dose: 60.0 mg/kg/injection, schedule: Q01DX005 (ip), vehicle: saline with Tween-80 118 % of control

COc1ccc(CCNC2CCCCC2O)cc1OC (stereo not given)
inactive: [2] 106 % of control | [3] 98 % of control | endpoint: mean survival time, dose: 300.0 mg/kg/injection, schedule: Q01DX001 (ip), vehicle: saline 104 % of control

[CH3][Sb]([CH3])([CH3])([O]C(=O)CC#N)[O]C(=O)CC#N
inactive: [6] 92 % of control | [7] 92 % of control | [8] 97 % of control

CCCCCCCCCCCCCCCC(=O)N(CCCN(C)C)C1CCC(N(CCCN(C)C)C(=O)CCCCCCCCCCCCCCC)CC1 (stereo not given)
inactive: [10] 101 % of control | endpoint: mean survival time, dose: 12.5 mg/kg/injection, schedule: Q04DX003 (ip), vehicle: saline with Tween-80 93 % of control | [4] 111 % of control | [5] 102 % of control
